This passage reports Activity results from ChEMBL document CHEMBL2062468, “Identification of first proadrenomedullin N-terminal 20 peptide (PAMP) modulator by means of virtual screening and NMR interaction experiments” (Eur J Med Chem, 2012).

Structures are written as SMILES. Activity calls are given as the source filed them. The rule behind the calls is not given here.

The first assay addresses T1, Pro-adrenomedullin (Homo sapiens) (UniProt P35318).
T1 sequence (whole entry): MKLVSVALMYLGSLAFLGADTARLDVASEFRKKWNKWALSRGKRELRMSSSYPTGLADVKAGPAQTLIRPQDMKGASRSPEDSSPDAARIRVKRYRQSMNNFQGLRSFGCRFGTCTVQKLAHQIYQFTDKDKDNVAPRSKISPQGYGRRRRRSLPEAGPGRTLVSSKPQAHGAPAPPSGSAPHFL
The assay can be described thus: Binding affinity to human synthetic proadrenomedullin N-terminal 20 peptide assessed as reduction in absorbance at 1 uM after 1 hr by monoclonal antibody method. Set-up: scale not given: the % may be the effect or the level left.
Turning to `Nc1nc(-c2ccc3ccccc3c2)cc(-c2cc(-c3ccc4ccccc4c3)nc(N)n2)n1`, the Activity was 104%.
Regarding `S=C1NCN2CCN(CC2)CNC(=S)C(=S)NCN2CCN(CC2)CNC1=S`, the Activity is 88%.
The same measure, in the same setting: under `c1ccc2c(CN3CCN(Cc4c[nH]c5ccccc45)CC3)c[nH]c2c1` stands 89.7%; under `C[C@]12CC[C@@H]3c4ccc(O)cc4CC[C@H]3[C@@H]1CC[C@@H]2OC(=O)CCC1CCCC1`, 91.2%.
Regarding `c1cc(NNc2cccc(-c3nnn[nH]3)c2)cc(-c2nnn[nH]2)c1`, the Activity amounted to 95.3%.
As to `Cc1ccc(-c2nc(-c3nccc4ccccc34)oc2-c2ccccc2)cc1`, the Activity came out at 72.1%.
Regarding `O=S(=O)(O)c1ccc(-c2nnc(-c3ccccn3)nc2-c2ccc(S(=O)(=O)O)o2)o1`, the Activity amounted to 81.9%.
For `C[C@]12CC[C@@H]3c4ccc(O)cc4CC[C@H]3[C@@H]1CC[C@@H]2OC(=O)CCc1ccccc1`, the Activity was determined as 98.4%.
Still for that read-out and setting: under `Nc1nc(SCc2ccccc2)c2ncn(Cc3ccccc3)c2n1` stands 91.4%; under `CC(C)CCC[C@@H](C)[C@H]1CC[C@H]2[C@@H]3CCC4CC(N)CC[C@]4(C)[C@H]3CC[C@]12C` (stereo partly specified), 106%; under `O=C(O)CNC(=O)C1NC(C(F)(F)F)(C(F)(F)F)OC1(C(F)(F)F)C(F)(F)F` (stereo unspecified), 92.1%.
As to `Nc1nc(-c2ccccc2)c(-c2ccccc2)c(-c2nc(N)nc(-c3ccccc3)c2-c2ccccc2)n1`, the Activity was 109%.
Still for that read-out and setting: under `O=[N+]([O-])c1ccc2c(c1)N=C1OC(c3c[nH]c4ccc(COc5ccccc5)cc34)C(O)=C1N2` (stereo unspecified) stands 92.7%; under `C(CCc1nnc2c(n1)CCCC2)Cc1nnc2c(n1)CCCC2`, 96.5%; under `Nc1ncnc2nc(-c3ccc(C[PH](c4ccccc4)(c4ccccc4)c4ccccc4)cc3)[nH]c12`, 76%.
Take `FC(F)(F)c1nc2ccc(SSc3ccc4nc(C(F)(F)F)[nH]c4c3)cc2[nH]1`: the Activity was 109%.
On the same count and under the same terms, under `Clc1ccc2c(N3CCC(CCC4CCN(c5ncnc6cc(Cl)ccc56)CC4)CC3)ncnc2c1` stands 88%; under `O=C1C(Cl)=C(Sc2nnc3c4ccccc4c4ccccc4c3n2)C(=O)c2ccccc21`, 88.4%.
Consider `O=C1C2C3C=CC(C2C(=O)N1CN1CCSCC1)C1C2C(=O)N(CN4CCSCC4)C(=O)C2C31` (stereo unspecified), for which the Activity turned out to be 92.5%.
Turning to `Cn1cnc([N+](=O)[O-])c1Sc1nc(N)nc2c1ncn2[C@H]1C[C@H](O)[C@@H](CO)O1`, the Activity amounted to 86.3%.
As for `O=C(O)c1c(-c2nccc3ccccc23)[nH]c(-c2ccccc2)c1S(=O)(=O)O`, the Activity stood at 96.7%.
On the same count and under the same terms, under `S=C(Nc1ccc2c(c1)Cc1ccccc1-2)Nc1ccc2c(c1)Cc1ccccc1-2` stands 80.8%; under `OC[C@H]1O[C@@H](n2cnc3c(SCc4ccccc4)ncnc32)[C@H](O)[C@@H]1O`, 109%; under `Cc1ccc2ccccc2c1CSc1nc(N)nc2c1ncn2CC(C)C`, 85.5%.
In the case of `CN1C(=O)C2N=C(C3CC(=O)CC(c4nc5c(=O)n(C)c(=O)n(C)c5[nH]4)N3)NC2N(C)C1=O` (stereo unspecified), the Activity is 85.1%.
In the case of `CC1(C)CC(Nc2ccc(Nc3ccccc3)cc2)CC(C)(C)N1`, the Activity came to 96.2%.
For the compound `O=C1c2ccccc2C(=O)c2c(NC3CCCCC3)ccc(Nc3ccc(S(=O)(=O)O)cc3)c21`, the Activity is 101%.
Take `CC1c2ccccc2Cn2cc3c(c21)C(=O)c1cccc(OP(=O)(O)OCc2ccccc2)c1C3=O` (stereo unspecified): the Activity was determined as 107%.
The same measure, in the same setting: under `c1ccc([PH](CC[PH](c2ccccc2)(c2ccccc2)c2ccccc2)(c2ccccc2)c2ccccc2)cc1` stands 84.6%.
For `Cn1c(=O)c2c(ncn2CN2CCN(Cn3cnc4c3c(=O)n(C)c(=O)n4C)CC2)n(C)c1=O`, the Activity was determined as 76.4%.
Turning to `O=c1[nH]c2ccccc2n1CCCN1CCC(n2c(=O)[nH]c3cc(Cl)ccc32)CC1`, the Activity was determined as 80.1%.
The same measure, in the same setting: under `O=S(=O)(O)c1ccc2cc(/N=N/c3cc(S(=O)(=O)O)c4cccnc4c3O)ccc2c1` stands 86.4%.

The next assay concerns Mus musculus. The assay can be described thus: Induction of angiogenesis in mouse athymic nude mouse implanted with matrigel containing compound at 1 uM measured after 11 days by direct in vivo angiogenesis assay. It counts as functional, organism-based.
Regarding `CN1C(=O)C2N=C(C3CC(=O)CC(c4nc5c(=O)n(C)c(=O)n(C)c5[nH]4)N3)NC2N(C)C1=O` (stereo unspecified), the result was Active.

In a further assay the target is T1, Pro-adrenomedullin (Homo sapiens). The experiment in a line: Binding affinity to human proadrenomedullin N-terminal 20 peptide at 500 uM by NMR spectroscopy.
`CN1C(=O)C2N=C(C3CC(=O)CC(c4nc5c(=O)n(C)c(=O)n(C)c5[nH]4)N3)NC2N(C)C1=O` (stereo unspecified): the outcome was Active.
On the same count and under the same terms, under `O=S(=O)(O)c1ccc2cc(/N=N/c3cc(S(=O)(=O)O)c4cccnc4c3O)ccc2c1` stands “Active”.

The target is the same in a further assay. The experiment in a line: Binding affinity to human proadrenomedullin N-terminal 20 peptide assessed as fragmentation of PAMP protein at 500 uM by MS analysis.
As for `O=S(=O)(O)c1ccc2cc(/N=N/c3cc(S(=O)(=O)O)c4cccnc4c3O)ccc2c1`, the outcome was Active.
